# Tests used:
# M1 muscarinic receptor = target: T1, M1 muscarinic receptor (Homo sapiens, UniProt P11229); experiment: Functional mobilization of intracellular calcium (FLIPR), M1-CHO cells; type: cell-based; conditions: for Emax: 100% efficacy is the maximum response obtained with the Carbachol control; for M1 Activity: CHO cells expressing M1, calcium mobilization
# T1 construct: expressed in transfected cells; host or cells: CHO (M1-CHO)
# T1 sequence (P11229 1-460): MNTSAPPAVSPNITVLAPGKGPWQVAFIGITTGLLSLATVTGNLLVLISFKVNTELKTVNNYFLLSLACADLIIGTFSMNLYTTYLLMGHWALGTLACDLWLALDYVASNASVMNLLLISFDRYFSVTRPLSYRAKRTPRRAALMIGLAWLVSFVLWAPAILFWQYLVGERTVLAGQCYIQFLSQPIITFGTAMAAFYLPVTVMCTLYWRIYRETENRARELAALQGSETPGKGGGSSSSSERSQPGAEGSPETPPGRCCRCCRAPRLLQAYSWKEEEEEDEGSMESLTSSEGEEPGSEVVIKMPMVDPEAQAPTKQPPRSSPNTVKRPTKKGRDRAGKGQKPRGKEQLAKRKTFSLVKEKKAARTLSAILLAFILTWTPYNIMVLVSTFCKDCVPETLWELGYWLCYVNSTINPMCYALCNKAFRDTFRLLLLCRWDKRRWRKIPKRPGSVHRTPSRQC
# Experimental: (§1) Functional Mobilization of Intracellular Calcium to Determine Muscarinic Receptor Activity:
# (§2) CHO cells expressing muscarinic receptors (M1 to M5) are grown as monolayers in tissue culture flasks at 37° C. in a humidified atmosphere containing 5% CO2 and passaged every 3-5 days. The growth media is Dulbecco's modified eagles medium (DMEM, Gibco Cat#12430-054), containing 25 mM Hepes and supplemented with Fetal Bovine Serum (Hyclone, cat# SH30071.03), 0.1 mM of MEM non-essential amino acids (GIBCO, Cat#11140-050), 1 mM MEM Sodium Pyruvate (GIBCO Cat#11360-070) and 100 units/ml of Penicillin G and 100 μg/ml of Streptomycin (GIBCO Cat#15140-122). The recombinant muscarinic receptor cell lines are grown under antibiotic pressure with media containing 25 μg/ml zeocin and 500 μg/ml G418 (M1-CHO), 4 μg/ml puromycin, 50 μg/ml zeocin and 2.5 μg/ml blasticidin (M2 and M4-CHO) or 50 μg/ml zeocin and 4 μg/ml puromycin (M3 and M5-CHO).
# (§3) Cells are harvested at 80-90% confluence using Versene (GIBCO Cat#15040-066), collected by centrifugation and seeded 18-24 hours prior to running the calcium assay at a density of 5,000-10,000 cells/well in […], clear-bottomed 384-well plates (BD Biocoat, poly-D-lysine, Cat#356663). The day of the experiment, the cells are washed with a plate washer (Bioteck Instrunents, ELX 405) using bath 1 buffer (140-mM NaCl, 4.5-mM KCl, 2-mM CaCl2, 1-mM MgCl2, 10-mM Hepes-Na, 10-mM Glucose, pH 7.4, with NaOH) containing 1 mM Probenecid. Next, the calcium dye Fluo-3 (25 μl/well of Fluo-3 AM at 4 μM, Molecular Probes F-1241, in Bath 1 buffer containing 1 mM Probenecid) is added to the 25 μl of Bath 1 remaining in each well after the plate wash and the dye is loaded at 37° C. in the tissue culture incubator for 60-90 min. The fluorescent dye is removed using the plate washer with Bath 1 containing 1 mM Probenecid, leaving 25 μl/well of this solution after the wash. Alternatively, cells can be loaded with the calcium indicator from Molecular Devices (Calcium 3 Assay Reagents, Cat # R7181) adding 5 μl of a 5× solution dye in Bath 1 containing 1 mM Probenecid (10 ml per dye flask cat# R7182 to generate a solution 20×) to 20 μl of the same buffer. After loading for 60 min, the experiment can be run without having to remove the dye.
# (§4) Compounds are prepared at a 2× fold concentration in a 96-well plate (round bottom, Costar Corning cat#3656), by reconstituting the pre-spotted compounds in bath 1 containing 1 mM probenecid. The final concentration DMSO is 0.5%, and the amount of DMSO is normalized across the assay plate. To determine an agonist action of the compounds on muscarinic receptors, the reconstituted compounds are added (25 μl compound/well) to the cell assay plate (containing 25 μl/well) using the multi-channel robotic system of the FLIPR 3 Instrument (Molecular Devices, Sunnyvale, Calif.). To determine a functional inhibitory action of the compounds on muscarinic receptors, the reconstituted compounds are added (25 μl compound/well) to the assay plate and pre-incubated for 15 min prior to adding 25 μl of Carbachol at 3× the EC80 for each muscarinic subtype. Alternatively, the compounds can be co-applied simultaneously with the agonist. In both assay modes, the fluorescence is recorded for 60 sec (excitation wavelength is […] and emission wavelength 540 nm) using the FLIPR 3 instrument.
# (§5) The potency, efficacy and selectivity of the muscarinic compounds were evaluated by screening the compound activity across the whole family (M1 to M5 cells). Compounds were also screened for activity on other proteins such as other GPCRs and ion channels to determine selectivity on M4 receptors.
# (§6) Examples of activities and efficacies of the muscarinic compounds of formulae (I, Ia, Ib, Ic, Id, and Ie) on modulating M1 and M4 receptors are shown below in Table 4. […]
# M4 muscarinic receptor = target: T2, M4 muscarinic receptor (Homo sapiens, UniProt P08173); experiment: Functional mobilization of intracellular calcium (FLIPR), M4-CHO cells; type: cell-based; conditions: for Emax: 100% efficacy is the maximum response obtained with the Carbachol control; for M4 Activity: CHO cells expressing M4, calcium mobilization
# T2 construct: expressed in transfected cells; host or cells: CHO (M4-CHO)
# T2 sequence (P08173 1-479): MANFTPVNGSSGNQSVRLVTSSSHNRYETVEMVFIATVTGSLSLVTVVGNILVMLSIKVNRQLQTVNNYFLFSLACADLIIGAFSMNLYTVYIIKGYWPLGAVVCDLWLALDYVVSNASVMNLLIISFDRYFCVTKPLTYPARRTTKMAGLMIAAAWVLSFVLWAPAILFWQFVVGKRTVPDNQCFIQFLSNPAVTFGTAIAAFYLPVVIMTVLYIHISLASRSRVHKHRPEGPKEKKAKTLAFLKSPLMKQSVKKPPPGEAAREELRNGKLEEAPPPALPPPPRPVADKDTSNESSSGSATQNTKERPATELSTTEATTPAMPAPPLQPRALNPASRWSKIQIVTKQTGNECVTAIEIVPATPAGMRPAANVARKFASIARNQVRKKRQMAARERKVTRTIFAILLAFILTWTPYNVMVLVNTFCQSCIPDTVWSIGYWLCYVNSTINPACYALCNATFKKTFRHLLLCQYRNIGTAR
# Experimental: as §1, §2, §3, §4, §5, §6
Structure (SMILES),Emax (M1 muscarinic receptor),M1 Activity (M1 muscarinic receptor),Emax (M4 muscarinic receptor),M4 Activity (M4 muscarinic receptor)
CCc1nsc(N2CCC(N3CCC4(CC3)CN(C(=O)N(C)C)c3ccccc34)CC2)n1 [compound 76],> 100%,+++ (activity was measured to be less than 2.0 μM),> 100%,+++ (activity was measured to be less than 2.0 μM)
COC(=O)N1CCC(N2CCC3(CCN(C(C)=O)c4ccccc43)CC2)CC1 [compound 10],25 to 100%,+++ (activity was measured to be less than 2.0 μM),25 to 100%,+++ (activity was measured to be less than 2.0 μM)
Cc1csc(N2CCC(N3CCC4(CC3)CN(C(=O)N(C)C)c3ccccc34)CC2)n1 [compound 91],25 to 100%,++ (activity was measured to be from 2.0 μM to 10.0 μM),25 to 100%,+++ (activity was measured to be less than 2.0 μM)
CC(=O)N1CCC2(CCN(C3CCN(c4nncs4)CC3)CC2)c2ccccc21 [compound 23],25 to 100%,++ (activity was measured to be from 2.0 μM to 10.0 μM),25 to 100%,++ (activity was measured to be from 2.0 μM to 10.0 μM)
CN(C)C(=O)N1CCC2(CCN(C3CCNCC3)CC2)c2ccccc21 [compound 33],< 25%,+ (activity was measured to be greater than 10.0 μM),< 25%,+ (activity was measured to be greater than 10.0 μM)
CC(C)OC(=O)N1CCC(N2CCC3(CC2)CN(C(=O)N(C)C)c2ccccc23)CC1 [compound 41],25 to 100%,+++ (activity was measured to be less than 2.0 μM),25 to 100%,+++ (activity was measured to be less than 2.0 μM)
CC(=O)N1CCC2(CCN(C3CCN(c4nc(C)cs4)CC3)CC2)c2ccccc21 [compound 25],25 to 100%,++ (activity was measured to be from 2.0 μM to 10.0 μM),25 to 100%,++ (activity was measured to be from 2.0 μM to 10.0 μM)
CN(C)C(=O)N1CC2(CCN(C[C@H]3CCN(C(=O)OCC(F)F)C3)CC2)c2ccccc21 [compound 63],25 to 100%,+++ (activity was measured to be less than 2.0 μM),25 to 100%,+++ (activity was measured to be less than 2.0 μM)
CN(C)C(=O)N1CCC2(CCN(C3CCN(C(=O)OCCC#N)CC3)CC2)c2ccccc21 [compound 19],< 25%,++ (activity was measured to be from 2.0 μM to 10.0 μM),25 to 100%,+++ (activity was measured to be less than 2.0 μM)
COCCOC(=O)N1C2CCC1CC(N1CCC3(CC1)CN(C(=O)N(C)C)c1ccccc13)C2 (stereo not shown) [compound 50],25 to 100%,+++ (activity was measured to be less than 2.0 μM),25 to 100%,+++ (activity was measured to be less than 2.0 μM)
COCCOC(=O)N1CC[C@@H](CN2CCC3(CC2)CN(C(=O)N(C)C)c2ccccc23)C1 [compound 58],25 to 100%,++ (activity was measured to be from 2.0 μM to 10.0 μM),25 to 100%,+++ (activity was measured to be less than 2.0 μM)
CC(=O)N1CCC2(CCN(C3CCN(c4cnccn4)CC3)CC2)c2ccccc21 [compound 17],25 to 100%,+++ (activity was measured to be less than 2.0 μM),25 to 100%,+++ (activity was measured to be less than 2.0 μM)
CCC#CCOC(=O)N1CCCC(N2CCC3(CC2)CN(C(=O)N(C)C)c2ccccc23)CC1 (stereo not shown) [compound 106],25 to 100%,+++ (activity was measured to be less than 2.0 μM),25 to 100%,+++ (activity was measured to be less than 2.0 μM)
CN(C)C(=O)N1CC2(CCN(C3CCN(c4nccs4)CC3)CC2)c2ccccc21 [compound 90],25 to 100%,++ (activity was measured to be from 2.0 μM to 10.0 μM),25 to 100%,++ (activity was measured to be from 2.0 μM to 10.0 μM)
CN(C)C(=O)N1CC2(CCN(C3CCN(c4cncc(-c5ccccc5O)n4)CC3)CC2)c2ccccc21 [compound 113],25 to 100%,+++ (activity was measured to be less than 2.0 μM),< 25%,+ (activity was measured to be greater than 10.0 μM)
CN(C)C(=O)N1CCC2(CCN(C3CCN(c4nncs4)CC3)CC2)c2ccccc21 [compound 21],25 to 100%,++ (activity was measured to be from 2.0 μM to 10.0 μM),< 25%,++ (activity was measured to be from 2.0 μM to 10.0 μM)
CN(C)C(=O)N1CC2(CCN(C3(C)CCN(c4cnccn4)CC3)CC2)c2ccccc21 [compound 82],25 to 100%,++ (activity was measured to be from 2.0 μM to 10.0 μM),25 to 100%,+++ (activity was measured to be less than 2.0 μM)
CCOC(=O)N1CC[C@H](CN2CCC3(CC2)CN(C(=O)N(C)C)c2ccccc23)C1 [compound 60],25 to 100%,+++ (activity was measured to be less than 2.0 μM),25 to 100%,+++ (activity was measured to be less than 2.0 μM)
"CN(C)C(=O)N[C@H]1CC2(CCN(C3CC4CC[C@@H]3C4)CC2)c2ccccc21 (stereo in doubt) [Compound No. 119, 3-((S)-1′-((1R,2S,4S)-bicyclo[2.2.1]heptan-2-yl)-2,3-dihydrospiro[indene-1,4′-piperidine]-3-yl)-1,1-dimethylurea]",< 25%,+ (activity was measured to be greater than 10.0 μM),25 to 100%,+++ (activity was measured to be less than 2.0 μM)

# Source: patent US8263605B2, “Modulators of muscarinic receptors” (Vertex Pharmaceutical Incorporated, priority 2006, dated 2012)
